From paper PMC4674085, “Towards Prebiotic Catalytic Amyloids Using High Throughput Screening” (PLoS ONE, 2015)

What was measured:
[1] = X-ray fiber diffraction of aligned fibrils; assay type: physicochemical; details: washed pellets dried between glass capillaries, room temperature
Procedure: The samples were centrifuged, the pellet resuspended (ultrapure water or 10 mM NaOAc pH 4) and centrifuged again. The washed pellets were resuspended in a minimal amount of water and 4 μl of the suspension were pipetted between the melted ends of two glass capillaries, which were then left to dry overnight in a sealed petri dish. The dried material was placed in an X-ray beam (Rigaku MicroMax-007HF) at room temperature for a 20 min exposure and diffraction data was collected on a Mar345 image plate detector.
Table A and associated data: Biophysical characterization of library […]
1. Fold increase in ThT ﬂuorescence over background.
2. CD spectra classiﬁed as follows: (β+) has minimum near 217 nm, (β++) has minimum near 217 nm and a maximum near 197 nm, (−) signal too weak to interpret, (?) spectra not typical of any secondary […]
3. The peak position in amide I region is given in cm−1. […]
within the typical range of stretching frequencies forβ-structure (between dashed lines at 1638 cm−1 and […]
4. (+) ﬁbrils present or (−) absent in EM micrographs.
5. Diﬀraction images recorded for the aligned ﬁbrils of 5 diﬀerent peptides (see materials and methods).

[2] = Activity screen of the amyloid library, 4NPA hydrolysis in plate reader (Fig 1); assay type: biochemical; details: for hydrolytic activity in the screen: condition 2: pH 7.3 with ZnCl2, 40 μM crude peptide, 250 μM zinc(II), A400
Procedure: The most common assay for hydrolytic activity in enzymes is with the chromogenic substrate p-nitrophenyl acetate (4NPA). Therefore, 4NPA was chosen permitting a direct comparison of the hits from the screen with natural enzymes. Using an absorbance plate reader, we screened the activity of the amyloid library at a peptide concentration of 40 μM, fibrillized at pH 4 or 7.3 and in the presence of divalent cations (250 μM Co^2+, Cu^2+, Mg^2+, Mn^2+, Ni^2+, or Zn^2+) (Fig 1). […] Imidazole is known to catalyze 4NPA hydrolysis under these conditions via an acyl intermediate and it was used as a standard to compare the measured activity of the peptides from plate to plate.
Fig 1 Activity screens of peptide amyloids in various conditions. The hydrolysis rates of 4NPA measured for each of the peptide amyloids (in columns) are shown as a ratio to the negative control (buffer) with color-codes as indicated at the bottom of the Figure. A color code from black (rate ratio of 1.0) to light blue (1.5) to red (19) is used. Activities below the negative control are indicated with smaller disks and color-coded from light grey to black. Occasionally observed negative reaction rates are indicated by small blue disks. The peptide amyloids were tested in a total of 46 conditions of which 19 conditions are shown here (in rows). The peptides are numbered according to Table 2, including a short nomenclature highlighting only the variable residues (e.g. the peptide Ac-YVDVHVSV-CONH2 is abbreviated DHS). The conditions are sorted top-down with the highest observed activity at the top. A detailed list of the conditions tested are shown in Table B in S1 File, while below a compressed introduction to the different conditions is listed: (2) pH 7.3 with ZnCl2 (control for 33 without heating), (33) condition 2 and heated to 95°C for 1 h prior to screening, (46) condition 2 and screened in 50% DMSO, (39) condition 2 and screened with 4.75 M NaCl, (40) condition 2 and screened with 0.2 M MgCl2, (45) condition 2 and screened in 90% EtOH, (38) condition 2 and screened with 0.2 M NaCl, (30) pH 7.3 with ZnCl2 and 1 M Na2SO4, (35) pH 7.3 and screened in 4.75 M NaCl, (34) pH 7.3 and screened in 0.5 M NaCl, (37) pH 7.3 and screened in 2 M MgCl2, (27) pH 7.3 with ZnCl2 and 0.2 M MgCl2, (6) pH 7.3 with NiCl2, (4) pH 7.3 with CoCl2, (1) pH 7.3 without other additives, (41) condition 2 and screened in 2 M MgCl2, (5) pH 7.3 with CuCl2, (36) pH 7.3 and screened in 0.2 M MgCl2 and (8) pH 4.0 without other additives.
The reaction buffer consisted of the same buffer as the fibrillization buffer without ZnCl2 and with 1.33 mM 4NPA prepared from a 100 mM stock in CH3CN. The samples of the amyloid library were mixed 1:3 with the reaction buffer yielding 40 μM peptide and, when present 250 μM zinc(II). The absorbance measurements were performed in a BMG Pherastar platereader with a 400 nm band-pass filter (10 nm bandwidth) in 96-well Nunclon Delta surface plates or 384-well Greiner Bio-One non-bind black μclear plates.
Table B: Amyloid growth and measurement conditions.
Growth = Measurement1 Growth⁄= Measurement1
Divalent2 pH3 T (◦C) Additive Divalent pH T (◦C) Additive
1. The conditions for ﬁbrillization and 4NPA assay are the same for 1-32 except that the 4NPA assay was always at 30 ◦C and the divalent concentration was one-fourth as high. For condition 33, the sample was heated to 95 ◦C for 1 hour prior to the 4NPA assay and for 34-46 the samples were ﬁbrillized in condition 1 or 2 and then transferred to the new conditions with additive just for the 4NPA assay.
2. Divalent concentration is 1 mM for growth and 250µM for 4NPA assay.
3. Grown and measured in 50 mM buﬀer: HEPES at pH 7.3, NaOAc at pH 4.0, or phthalate at pH 2.2.

[3] = Aggregation at pH 4 from soluble material left after 100,000 g centrifugation; assay type: physicochemical; details: 40 μM purified peptide, pH 4, soluble material in supernatant of 100,000 g centrifugation

## Ac-YVAVHVHV-NH2 [Peptide 27, Ac-YVAVHVHV-CONH2]
[1]
  X-ray diffraction of aligned fibrils: cross-β
[2]
  hydrolytic activity in the screen: highest activity
[2]; high organic solvent content (50% DMSO, 90% EtOH) or high salt (4.75 M NaCl, 1 M Na2SO4), with ZnCl2
  activity in the screen under extreme conditions: often significant

## Ac-YVDVHVDV-NH2 [Peptide 25, Ac-YVDVHVDV-CONH2]
[2]; condition 46: fibrillized at pH 7.3 with ZnCl2, screened in 50% DMSO, also activity above positive control (200 μM imidazole)
  relative activity in the screen in 50% DMSO: increased relative activity compared to the same condition without DMSO

## Ac-YVHVHVDV-NH2 [Peptide 21, Ac-YVHVHVDV-CONH2]
[3]
  aggregation behaviour at pH 4: remained soluble for several days

## Ac-YVHVHVHV-NH2 [Peptide 8, Ac-YVHVHVHV-CONH2]
[1]
  X-ray diffraction of aligned fibrils: cross-β
[2]
  hydrolytic activity in the screen: highest activity

## Ac-YVHVHVSV-NH2 [Peptide 11, Ac-YVHVHVSV-CONH2]
[2]
  hydrolytic activity in the screen: highest activity

## Ac-YVSVHVHV-NH2 [Peptide 9, Ac-YVSVHVHV-CONH2]
[2]
  hydrolytic activity in the screen: highest activity
